Laboratory results reported in article PMC12605013, “SAG1.3-derived Frizzled-targeting small-molecule compounds” (The Journal of Biological Chemistry, 2025).

How the values were obtained:
FZD5–DEP–Clamp sensor = experiment: FZD5–DEP–Clamp BRET sensor in stably expressing HEK293A cells; assay type: cell-based, human
Experimental: To generate the stable FZD5–DEP–Clamp cell line, HEK293A cells were seeded at a density of 500,000 cells/well in a 6-well plate. On the next day, the adherent cells were transfected with 2 μg of FZD5–DEP–Clamp (TK) plasmid using PEI as the transfection reagent. After 2 days of transfection, cells were detached and transferred to a 75 cm^2 flask. Stably transfected cells were selected using complete medium (DMEM + 10% fetal calf serum + 1% penicillin–streptomycin) supplemented with 2000 μg/ml G-418 sulfate (Gibco; catalog no.: 10131027) for 3 weeks. After obtaining stable growth, cell culture of the stable cell line was continued with 500 μg/ml G-418.
For kinetic experiments with the FZD5–DEP–Clamp sensor, BRET values were first baseline-corrected for every well separately by subtracting the average of the first three reads prior ligand addition. Afterward, the average values for vehicle-containing wells were subtracted for every timepoint to get access to actual ligand-induced changes in BRET ratio (ΔBRET values).
Figure S4. […] (A) Shown is the BRET time-course recorded upon addition of 30 µM compound 11 or vehicle (DMSO). […] The cell surface pool of transiently-transfected HiBiT-FZD5 (B) and HiBiT-FZD6 (C) was assessed by addition of recombinant LgBiT in combination with detection of NanoBiT luminescence. […]

[1] = system: LGR5 gene expression in primary human hepatocyte (PHH) spheroids; experiment: WNT-3A-induced LGR5 gene expression in primary human hepatocyte spheroids; assay type: cell-based; conditions: 10 μM compound, 48 h, coaddition with WNT-3A
Experimental: Cryopreserved adult PHHs were purchased from BioIVT and cultured as 3D spheroids as previously described ([35]). Briefly, PHHs were seeded in 96-well ultra-low attachment plates (Corning) at a density of 1500 cells/well in William’s E medium (Gibco) supplemented with insulin, transferrin, and selenium (Life Technologies), 100 nM dexamethasone (Sigma), and 10% fetal bovine serum (Cytiva). PHHs were treated from the start of the culture with vehicle control (dimethyl sulfoxide [DMSO]), recombinant WNT-3A, and 10 μM compound 11 for 48 h, as indicated. […]
RNA from 24 hepatocyte spheroids per condition was isolated using Qiazol lysis reagent (QIAGEN). For expression profiling of target genes by quantitative PCR, complementary DNA synthesis was carried out using SuperScript III reverse transcriptase (Invitrogen), and expression was evaluated using Taqman probes (Table S6) according to the supplier’s instructions in a 7500 Fast Real-Time PCR system (Applied Biosystems). Gene expression was quantified using the ΔΔCt method (normalized to the average of the vehicle control from all three experiments).
For the WNT target gene analysis in PHH-derived spheroids, ΔΔCt values were calculated by normalization to the averaged vehicle control from three independent experiments.

HiBiT-FZD6 = target: T1, HiBiT-FZD6 (Homo sapiens, UniProt O60353); experiment: NanoBiT cell surface expression assay, HiBiT-FZD6; assay type: cell-based; conditions: 10 μM, overnight exposure
T1 construct: expressed in transfected cells; host or cells: HEK293A cells
T1 sequence (O60353 19-706): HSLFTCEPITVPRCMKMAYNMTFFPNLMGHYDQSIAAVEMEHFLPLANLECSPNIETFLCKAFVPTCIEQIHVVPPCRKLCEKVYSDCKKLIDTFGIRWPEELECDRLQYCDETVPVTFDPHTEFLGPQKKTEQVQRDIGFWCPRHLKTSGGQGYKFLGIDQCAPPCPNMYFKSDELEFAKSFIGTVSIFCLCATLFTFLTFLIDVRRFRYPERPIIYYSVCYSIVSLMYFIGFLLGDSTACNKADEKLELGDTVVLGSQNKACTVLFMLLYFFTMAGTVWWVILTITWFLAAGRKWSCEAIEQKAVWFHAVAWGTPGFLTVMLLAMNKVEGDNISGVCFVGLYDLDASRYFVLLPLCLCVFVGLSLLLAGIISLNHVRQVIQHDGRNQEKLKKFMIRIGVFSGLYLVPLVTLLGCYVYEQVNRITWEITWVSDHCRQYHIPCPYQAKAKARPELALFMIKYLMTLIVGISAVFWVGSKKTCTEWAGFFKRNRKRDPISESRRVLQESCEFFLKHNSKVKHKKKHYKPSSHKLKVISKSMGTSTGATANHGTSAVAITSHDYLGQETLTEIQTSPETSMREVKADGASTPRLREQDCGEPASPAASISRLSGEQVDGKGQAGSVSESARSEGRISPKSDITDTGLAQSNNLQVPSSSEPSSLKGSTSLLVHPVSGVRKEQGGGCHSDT
Experimental: Subsequently, 10 μl of either compound 11 or 26 (DD436001) was added at a final concentration of 10 μM. DMSO was added separately as a control. One day after compound or DMSO addition, cells were washed once with HBSS, and 90 μl of HBSS was added to the wells. To measure cell surface expression, a 1:20 dilution of furimazine live cell substrate and 1:20 LgBiT mix (final dilution = 1:200) were prepared in HBSS and 10 μl was added. The plate was incubated for 30 min to allow for HiBiT–LgBiT complementation, and then luminescence was measured on a TECAN Spark multimode microplate reader between 460 and 500 nm (integration time: 200 ms).
Figure S4. BRET time-course of compound 11 at the FZD5-DEP-Clamp in agonist mode and HiBiT-FZD5/6 surface expression upon compound exposure. (A) Shown is the BRET time-course recorded upon addition of 30 µM compound 11 or vehicle (DMSO). Experiments were performed in HEK293A cells stably expressing the FZD5-DEP-Clamp sensor. […] The timepoint of ligand addition is indicated by a black arrow. (B, C) Impact of compound 11 on FZD cell surface expression. The cell surface pool of transiently-transfected HiBiT-FZD5 (B) and HiBiT-FZD6 (C) was assessed by addition of recombinant LgBiT in combination with detection of NanoBiT luminescence. […]

## CC(=O)Nc1cccc(C(=O)NC2CCC(N(Cc3cccc(-c4ccncc4)c3)C(=O)c3sc4ccccc4c3Cl)CC2)c1 (stereo not shown) [compound 11, N-((1r,4r)-4-(3-Acetamidobenzamido)cyclohexyl)-3-chloro-N-(3-(pyridin-4-yl)benzyl)benzo[b]thiophene-2-carboxamide]
FZD5–DEP–Clamp sensor; 500 ng/ml high-purity WNT-3A with 30 μM compound
  Effect on WNT-induced FZD5–DEP–Clamp response: able to interfere with the WNT-induced effects
FZD5–DEP–Clamp sensor; 30 µM compound, agonist mode
  BRET response of FZD5–DEP–Clamp, compound alone: did not elicit a robust change in BRET response
[1]
  Effect on WNT-3A-induced LGR5 mRNA expression: returning mRNA expression almost back to vehicle levels
HiBiT-FZD6
  Effect on surface levels of HiBiT-FZD6: had no effect
